Some results are limits rather than exact numbers.

The target in assay [1] is Prostaglandin G/H synthase 1 (Homo sapiens, UniProt P23219). The class given is functional.
In assay [2] the target is T1, Amine oxidase [flavin-containing] A (Homo sapiens, UniProt P21397).
T1 sequence (P21397 whole entry): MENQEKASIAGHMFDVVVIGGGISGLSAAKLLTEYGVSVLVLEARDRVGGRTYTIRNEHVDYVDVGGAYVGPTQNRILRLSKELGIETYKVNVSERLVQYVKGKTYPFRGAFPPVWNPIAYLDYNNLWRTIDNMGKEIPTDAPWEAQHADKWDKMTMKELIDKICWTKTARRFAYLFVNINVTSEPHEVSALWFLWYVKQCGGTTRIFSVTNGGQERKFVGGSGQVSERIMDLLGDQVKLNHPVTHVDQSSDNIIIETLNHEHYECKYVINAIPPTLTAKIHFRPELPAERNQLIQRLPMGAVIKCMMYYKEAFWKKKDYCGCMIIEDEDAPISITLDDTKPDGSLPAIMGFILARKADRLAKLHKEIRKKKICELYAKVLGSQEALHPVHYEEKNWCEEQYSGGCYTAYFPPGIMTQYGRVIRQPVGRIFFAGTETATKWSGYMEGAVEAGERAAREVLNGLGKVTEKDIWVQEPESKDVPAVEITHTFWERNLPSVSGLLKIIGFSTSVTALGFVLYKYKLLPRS
The assay is classed as functional.

In assay [3] the target is T2, Estrogen receptor (Homo sapiens, UniProt P03372).
T2 sequence (P03372 whole entry): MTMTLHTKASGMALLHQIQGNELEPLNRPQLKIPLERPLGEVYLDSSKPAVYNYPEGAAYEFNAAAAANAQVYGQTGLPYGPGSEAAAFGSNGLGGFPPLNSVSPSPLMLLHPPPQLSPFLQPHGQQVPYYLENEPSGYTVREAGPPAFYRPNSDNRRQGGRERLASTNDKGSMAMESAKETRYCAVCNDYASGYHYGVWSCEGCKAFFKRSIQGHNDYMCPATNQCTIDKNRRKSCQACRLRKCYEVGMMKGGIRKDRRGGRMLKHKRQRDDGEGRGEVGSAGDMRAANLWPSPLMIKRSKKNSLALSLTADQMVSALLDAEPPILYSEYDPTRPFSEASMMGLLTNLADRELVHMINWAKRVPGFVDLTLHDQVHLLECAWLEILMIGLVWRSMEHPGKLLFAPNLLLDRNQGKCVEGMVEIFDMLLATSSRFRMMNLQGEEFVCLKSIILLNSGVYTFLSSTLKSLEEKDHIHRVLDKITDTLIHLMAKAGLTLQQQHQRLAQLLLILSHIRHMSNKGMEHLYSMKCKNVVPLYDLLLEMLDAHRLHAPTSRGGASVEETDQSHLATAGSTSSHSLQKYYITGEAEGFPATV

Assay [4] concerns the target 3',5'-cyclic-AMP phosphodiesterase 4A (Homo sapiens, UniProt P27815). The assay is classed as functional.
Assay [5] addresses T3, Thromboxane A2 receptor (Homo sapiens, UniProt P21731).
T3 sequence (P21731 whole entry): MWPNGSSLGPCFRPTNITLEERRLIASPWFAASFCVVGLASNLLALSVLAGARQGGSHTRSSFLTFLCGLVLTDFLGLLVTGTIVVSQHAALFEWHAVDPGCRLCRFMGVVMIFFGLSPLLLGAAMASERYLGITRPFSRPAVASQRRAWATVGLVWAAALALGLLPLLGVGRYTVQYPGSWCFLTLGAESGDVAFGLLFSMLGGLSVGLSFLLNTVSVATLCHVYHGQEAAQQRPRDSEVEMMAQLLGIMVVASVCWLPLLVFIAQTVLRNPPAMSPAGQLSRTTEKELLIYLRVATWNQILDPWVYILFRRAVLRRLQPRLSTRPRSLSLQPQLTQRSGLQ
The assay is classed as functional, cell-based.

The target in assay [6] is T4, Adenosine receptor A3 (Homo sapiens, UniProt P0DMS8).
T4 sequence (P0DMS8 whole entry): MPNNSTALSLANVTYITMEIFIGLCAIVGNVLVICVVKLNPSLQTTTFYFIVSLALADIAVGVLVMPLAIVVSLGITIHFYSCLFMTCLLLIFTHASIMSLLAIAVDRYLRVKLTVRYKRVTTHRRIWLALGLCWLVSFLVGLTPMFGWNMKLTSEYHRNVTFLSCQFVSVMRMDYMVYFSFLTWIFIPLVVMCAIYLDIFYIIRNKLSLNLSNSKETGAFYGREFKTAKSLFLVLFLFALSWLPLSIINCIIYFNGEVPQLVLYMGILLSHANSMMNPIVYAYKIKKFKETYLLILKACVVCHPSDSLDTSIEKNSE

The target of assay [7] is D(3) dopamine receptor (Homo sapiens, UniProt P35462).
Sequence of D(3) dopamine receptor (P35462 whole entry): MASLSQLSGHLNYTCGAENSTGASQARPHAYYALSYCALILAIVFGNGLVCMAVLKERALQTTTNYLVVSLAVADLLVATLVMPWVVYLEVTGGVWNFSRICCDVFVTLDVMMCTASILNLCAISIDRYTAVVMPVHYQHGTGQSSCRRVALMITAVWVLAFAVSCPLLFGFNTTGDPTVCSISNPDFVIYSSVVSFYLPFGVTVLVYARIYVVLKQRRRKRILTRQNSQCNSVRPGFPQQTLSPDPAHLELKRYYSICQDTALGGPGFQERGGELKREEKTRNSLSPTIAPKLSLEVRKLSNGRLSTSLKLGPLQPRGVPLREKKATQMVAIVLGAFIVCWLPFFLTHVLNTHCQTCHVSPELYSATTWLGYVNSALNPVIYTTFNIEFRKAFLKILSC
The target in assay [8] is Mu-type opioid receptor (Homo sapiens, UniProt P35372).
Sequence of Mu-type opioid receptor (P35372 whole entry): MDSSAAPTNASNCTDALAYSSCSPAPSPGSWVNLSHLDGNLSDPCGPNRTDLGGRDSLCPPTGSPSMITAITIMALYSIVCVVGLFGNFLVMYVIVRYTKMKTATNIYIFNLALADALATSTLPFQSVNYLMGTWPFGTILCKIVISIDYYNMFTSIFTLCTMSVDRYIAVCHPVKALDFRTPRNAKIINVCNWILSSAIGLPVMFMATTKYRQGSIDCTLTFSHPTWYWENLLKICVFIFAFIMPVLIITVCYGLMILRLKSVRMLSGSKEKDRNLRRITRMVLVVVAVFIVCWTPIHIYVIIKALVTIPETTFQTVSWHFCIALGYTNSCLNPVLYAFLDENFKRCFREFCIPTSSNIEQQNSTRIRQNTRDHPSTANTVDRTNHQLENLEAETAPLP
Assay [9] addresses T5, 5-hydroxytryptamine receptor 1A (Homo sapiens, UniProt P08908).
T5 sequence (P08908 whole entry): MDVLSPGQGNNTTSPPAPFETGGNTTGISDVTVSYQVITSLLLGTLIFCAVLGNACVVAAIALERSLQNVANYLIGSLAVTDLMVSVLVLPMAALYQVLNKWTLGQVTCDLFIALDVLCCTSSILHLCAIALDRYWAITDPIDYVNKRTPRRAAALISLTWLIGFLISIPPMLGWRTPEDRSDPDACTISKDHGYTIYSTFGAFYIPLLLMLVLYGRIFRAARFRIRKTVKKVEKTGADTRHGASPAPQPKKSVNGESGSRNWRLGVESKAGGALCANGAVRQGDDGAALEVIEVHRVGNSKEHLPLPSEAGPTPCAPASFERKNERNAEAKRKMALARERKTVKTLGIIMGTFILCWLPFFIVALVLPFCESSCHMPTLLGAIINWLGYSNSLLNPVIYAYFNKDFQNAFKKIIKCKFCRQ

The target of assay [10] is D(1A) dopamine receptor (Homo sapiens, UniProt P21728).
Sequence of D(1A) dopamine receptor (P21728 whole entry): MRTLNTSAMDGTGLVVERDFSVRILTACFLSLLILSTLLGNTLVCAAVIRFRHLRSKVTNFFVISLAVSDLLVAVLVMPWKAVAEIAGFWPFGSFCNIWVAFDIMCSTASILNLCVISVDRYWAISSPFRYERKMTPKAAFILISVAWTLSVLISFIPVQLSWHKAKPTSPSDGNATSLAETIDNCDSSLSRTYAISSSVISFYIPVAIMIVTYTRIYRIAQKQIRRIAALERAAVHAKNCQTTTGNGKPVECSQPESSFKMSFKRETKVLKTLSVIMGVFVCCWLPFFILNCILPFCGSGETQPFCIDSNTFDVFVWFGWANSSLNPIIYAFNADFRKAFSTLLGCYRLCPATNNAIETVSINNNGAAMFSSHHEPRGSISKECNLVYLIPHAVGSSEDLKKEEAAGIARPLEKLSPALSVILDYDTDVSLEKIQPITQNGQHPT
Assay [11] addresses Prothrombin (Homo sapiens, UniProt P00734). The class given is functional.
Assay [12] deals with 5-hydroxytryptamine receptor 2B (Homo sapiens, UniProt P41595). The assay is classed as functional, cell-based.
Sequence of 5-hydroxytryptamine receptor 2B (P41595 whole entry): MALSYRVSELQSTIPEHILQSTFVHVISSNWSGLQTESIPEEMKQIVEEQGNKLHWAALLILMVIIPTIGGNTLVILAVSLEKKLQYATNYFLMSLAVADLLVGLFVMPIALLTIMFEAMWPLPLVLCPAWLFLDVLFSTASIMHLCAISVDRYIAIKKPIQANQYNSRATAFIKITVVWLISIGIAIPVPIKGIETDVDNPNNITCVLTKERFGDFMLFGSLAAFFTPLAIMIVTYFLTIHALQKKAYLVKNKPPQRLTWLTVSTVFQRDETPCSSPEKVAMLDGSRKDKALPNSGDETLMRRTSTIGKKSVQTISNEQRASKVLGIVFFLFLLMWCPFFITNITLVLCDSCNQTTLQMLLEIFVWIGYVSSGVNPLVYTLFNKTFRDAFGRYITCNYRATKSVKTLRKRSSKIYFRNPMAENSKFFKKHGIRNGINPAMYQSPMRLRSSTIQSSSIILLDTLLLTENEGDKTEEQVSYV
Assay [13] deals with Histamine H3 receptor (Homo sapiens, UniProt Q9Y5N1).
Sequence of Histamine H3 receptor (Q9Y5N1 whole entry): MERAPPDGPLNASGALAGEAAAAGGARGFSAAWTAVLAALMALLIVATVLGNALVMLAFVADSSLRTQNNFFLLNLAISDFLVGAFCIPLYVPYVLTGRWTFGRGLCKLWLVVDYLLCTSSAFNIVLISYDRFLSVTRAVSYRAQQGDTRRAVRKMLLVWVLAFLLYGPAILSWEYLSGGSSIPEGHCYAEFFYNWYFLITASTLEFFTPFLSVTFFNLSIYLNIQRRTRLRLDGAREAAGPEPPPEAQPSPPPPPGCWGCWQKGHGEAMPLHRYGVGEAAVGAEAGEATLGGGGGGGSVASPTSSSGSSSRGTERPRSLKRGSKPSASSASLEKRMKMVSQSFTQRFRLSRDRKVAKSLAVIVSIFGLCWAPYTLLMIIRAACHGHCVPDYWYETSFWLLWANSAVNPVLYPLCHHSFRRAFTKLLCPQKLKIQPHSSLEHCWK
Further: assay procedure not described here.

Sequence of Prostaglandin G/H synthase 1 (P23219 whole entry): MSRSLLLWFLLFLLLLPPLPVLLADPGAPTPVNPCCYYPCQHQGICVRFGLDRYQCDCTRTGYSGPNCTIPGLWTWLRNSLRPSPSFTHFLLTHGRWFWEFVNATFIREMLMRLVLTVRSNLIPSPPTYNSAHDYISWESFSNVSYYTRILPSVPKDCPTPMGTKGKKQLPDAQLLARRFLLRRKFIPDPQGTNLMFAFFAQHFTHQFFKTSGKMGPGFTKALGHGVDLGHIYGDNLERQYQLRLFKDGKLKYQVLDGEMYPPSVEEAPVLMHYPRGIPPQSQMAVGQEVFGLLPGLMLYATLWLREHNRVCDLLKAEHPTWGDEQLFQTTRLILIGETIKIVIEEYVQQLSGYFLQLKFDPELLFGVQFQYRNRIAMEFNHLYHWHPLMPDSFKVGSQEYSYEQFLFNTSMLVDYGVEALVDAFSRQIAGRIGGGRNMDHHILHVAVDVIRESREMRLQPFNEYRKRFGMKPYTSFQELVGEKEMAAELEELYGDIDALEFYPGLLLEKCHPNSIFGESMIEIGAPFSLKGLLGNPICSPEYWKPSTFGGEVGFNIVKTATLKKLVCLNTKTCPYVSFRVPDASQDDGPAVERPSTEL
Sequence of 3',5'-cyclic-AMP phosphodiesterase 4A (P27815 whole entry): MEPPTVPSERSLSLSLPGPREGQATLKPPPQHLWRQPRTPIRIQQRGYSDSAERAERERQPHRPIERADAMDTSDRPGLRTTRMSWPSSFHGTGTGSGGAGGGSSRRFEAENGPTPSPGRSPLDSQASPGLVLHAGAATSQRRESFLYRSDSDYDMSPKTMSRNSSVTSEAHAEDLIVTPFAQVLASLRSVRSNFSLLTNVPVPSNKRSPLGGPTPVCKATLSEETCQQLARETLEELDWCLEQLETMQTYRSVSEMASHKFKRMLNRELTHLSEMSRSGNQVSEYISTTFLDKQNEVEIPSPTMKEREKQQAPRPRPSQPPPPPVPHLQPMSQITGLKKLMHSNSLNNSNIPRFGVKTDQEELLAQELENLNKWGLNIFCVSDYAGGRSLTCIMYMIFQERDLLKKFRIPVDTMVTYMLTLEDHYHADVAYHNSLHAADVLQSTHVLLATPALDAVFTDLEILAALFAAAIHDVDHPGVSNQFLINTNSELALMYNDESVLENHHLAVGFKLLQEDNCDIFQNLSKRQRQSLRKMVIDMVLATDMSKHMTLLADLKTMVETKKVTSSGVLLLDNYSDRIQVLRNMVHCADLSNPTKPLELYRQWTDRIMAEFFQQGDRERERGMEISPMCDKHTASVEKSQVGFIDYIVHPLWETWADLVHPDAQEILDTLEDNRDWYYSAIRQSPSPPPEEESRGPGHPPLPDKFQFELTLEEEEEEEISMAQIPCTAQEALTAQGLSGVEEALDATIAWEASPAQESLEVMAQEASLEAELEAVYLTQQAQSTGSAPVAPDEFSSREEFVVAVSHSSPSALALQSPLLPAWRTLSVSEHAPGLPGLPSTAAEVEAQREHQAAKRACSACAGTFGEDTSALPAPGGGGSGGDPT

In the case of `CC(c1ccc(Cl)c(Cl)c1)N1N=C(N)CC1=O` (configuration not stated) [MUZOLIMINE], the AC50 in assay [1], in assay [2], in assay [3], in [4], in assay [5] and in assay [6] was > 30 µM throughout. Further, the AC50 in [7], in assay [8], in [9], in assay [10], in assay [11] and in [12] was > 30 µM in each case. For the same compound, the AC50 – broadly, the midpoint of the concentration-response curve, whichever way the signal moves – in [13] was > 30 µM.
Turning to `CNC(=O)Oc1ccc2c(c1)[C@]1(C)CCN(C)[C@@H]1N2C` [PHYSOSTIGMINE], the AC50 in assay [1] is > 10 µM; in [2], > 30 µM; in assay [3], > 30 µM; in assay [4], > 30 µM; in [5] it was > 30 µM; in assay [6] it was > 30 µM. Besides, the AC50 is > 30 µM in assay [7]; 5.74 µM in assay [8]; > 30 µM in assay [9]; > 30 µM in [10]; > 30 µM in assay [11]; > 30 µM in assay [12]. The AC50 in assay [13] is > 30 µM.
`C1CNCCN1` [PIPERAZINE]: the AC50 in [1] was > 30 µM; in [2], > 30 µM; in assay [3], > 30 µM; in assay [4], 28.4 µM; in [5], > 30 µM; in assay [6], > 30 µM. In addition, the AC50 in assay [7], in [8], in [9], in assay [10], in assay [11] and in assay [12] was > 30 µM throughout. Moreover, the AC50 in [13] was > 30 µM.
Turning to `c1cc(CN2CCCNCCNCCCNCC2)ccc1CN1CCCNCCNCCCNCC1` [PLERIXAFOR], the AC50 in assay [1], in assay [2], in assay [3], in assay [4], in [5] and in assay [6] was > 30 µM throughout. In addition, the AC50 in assay [7], in assay [8], in assay [9], in assay [10], in [11] and in assay [12] was > 30 µM each time. Besides, the AC50 in assay [13] is 0.307 µM.
For `O=C(NC(Cc1cc(=O)[nH]c2ccccc12)C(=O)O)c1ccc(Cl)cc1` (configuration not stated) [REBAMIPIDE], the concentration at half-maximal activity (AC50) in assay [1], in [2], in assay [3], in [4], in assay [5] and in [6] was > 30 µM throughout. Moreover, the concentration at half-maximal activity (AC50) in [7], in assay [8], in [9], in assay [10], in [11] and in assay [12] was > 30 µM throughout. The AC50 in [13] is > 30 µM.
Turning to `CO[C@H]1/C=C/O[C@@]2(C)Oc3c(C)c(O)c4c(O)c(cc(O)c4c3C2=O)NC(=O)/C(C)=C\C=C\[C@H](C)[C@H](O)[C@@H](C)[C@@H](O)[C@@H](C)[C@H](OC(C)=O)[C@@H]1C` [RIFAMYCIN], the AC50 is > 30 µM in assay [1]; > 30 µM in assay [2]; > 30 µM in assay [3]; > 30 µM in [4]; 8.77 µM in assay [5]; > 30 µM in [6]. Moreover, the AC50 in [7], in assay [8], in [9], in assay [10], in [11] and in assay [12] was > 30 µM each time. Also, the AC50 in [13] was > 30 µM.
For `CCCC(=O)O[C@H]1[C@H](C)O[C@@H](O[C@H]2[C@H](N(C)C)[C@@H](O)[C@H](O[C@H]3[C@@H](CC=O)C[C@@H](C)[C@@H](O)/C=C/C=C/C[C@@H](C)OC(=O)C[C@@H](O)[C@@H]3OC)O[C@@H]2C)C[C@@]1(C)OC(=O)CC` [ROKITAMYCIN], the AC50 was 8.78 µM in [1]; > 30 µM in assay [2]; > 30 µM in [3]; > 30 µM in [4]; > 30 µM in assay [5]; > 30 µM in assay [6]. In addition, the AC50 in assay [7], in [8], in assay [9], in [10], in assay [11] and in [12] was > 30 µM each time. For the same compound, in assay [13], the AC50 was > 30 µM.
Consider `CCCCCCCCCCCCCCCCCC(=O)NCCCC[C@H](NC(=O)CC[C@@H](NC(=O)[C@H](C)NC(=O)[C@@H](C)O[C@H]1[C@H](O)[C@@H](CO)OC(O)[C@@H]1NC(C)=O)C(N)=O)C(=O)O` (some centres not stated) [ROMURTIDE], for which the AC50 was 5.94 µM in assay [1]; > 30 µM in assay [2]; 22.2 µM in assay [3]; > 3 µM in assay [4]; 15.9 µM in assay [5]; 2.2 µM in assay [6]. The AC50 in [7] is > 30 µM; in assay [8], > 30 µM; in [9], 6.21 µM; in [10] it was > 30 µM; in assay [11], > 30 µM; in [12], > 30 µM. Moreover, in assay [13], the AC50 is > 30 µM.
As for `O=C(Oc1ccccc1C(=O)O)c1ccccc1O` [SALSALATE], the AC50 in [1], in [2], in [3], in assay [4], in assay [5] and in [6] was > 30 µM in each case. Also, the AC50 in [7], in [8], in assay [9], in assay [10], in assay [11] and in assay [12] was > 30 µM in each case. Moreover, the AC50 in assay [13] was > 30 µM.
